Experimental data reported in patent publication US20190203212A1, “INDUCIBLE DNA BINDING PROTEINS AND GENOME PERTURBATION TOOLS AND APPLICATIONS THEREOF” (Massachusetts Institute of Technology, priority 2013, published 2019).

Tested on: Grm2
Test: AAV-delivered TALE / LITE modulation of Grm2 mRNA in primary cortical neurons, qRT-PCR
Type: cell-based, mouse
Conditions: neurons expressing only one LITE component
Procedure: FIG. 18 depicts metabotropic glutamate receptor 2 (mGlur2) LITE activity in mouse cortical neuron culture. A mGluR2 targeting LITE was constructed via the plasmids pAAV-human Synapsin I promoter (hSyn)-HA-TALE(mGluR2)-CIB1 and pAAV-hSyn-CRY2PHR-VP64-2A-GFP. These fusion constructs were then packaged into adeno associated viral vectors (AAV). Additionally, AAV carrying hSyn-TALE-VP64-2A-GFP and GFP only were produced. Embryonic mouse (E16) cortical cultures were plated on Poly-L-lysine coated 24 well plates. After 5 days in vitro neural cultures were co-transduced with a mixture of TALE(mGluR2)-CIB1 and CRY2PHR-VP64 AAV stocks. Control samples were transduced with either TALE(mGluR2)-VP64 AAV or GFP AAV. 6 days after AAV transduction, experimental samples were stimulated using either of two light pulsing paradigms: 0.5 s per min and 0.25 sec per 30 sec. Neurons were stimulated for 24 h and harvested for qPCR analysis. All mGluR2 expression levels were normalized to the respective stimulated GFP control. […]
Light stimulation was started 6 days after AAV transduction (DIV 11) with an intensity of 5 mW/cm^2, duty cycle of 0.8% (250 ms pulses at 0.033 Hz or 500 ms pulses at 0.016 Hz), 466 nm blue light for 24 h unless indicated otherwise in figure legends. […] Relative mRNA levels were measured by quantitative real-time PCR (qRT-PCR) using TaqMan probes as described above for Neuro 2a cells. […]

With “CRY2PHR-VP64: LITE effector component alone” the “Grm2 mRNA versus GFP controls, single LITE component” value was “did not significantly affect transcription”.
